Test results: ChEMBL document CHEMBL5576054, “Lead compound profiling for small molecule inhibitors of the REV1-CT/RIR Translesion synthesis Protein-Protein interaction” (Bioorg Med Chem, 2024)
≈ marks a conversion by molar mass, not a printed value. Calls of active or inactive are those of the source. The calls are words filed in the database; no cut-off is given here.

Tests used:
[1] = Metabolic stability in human liver microsomes assessed as intrinsic clearance at 1 uM incubated upto 60 mins by LC-MS/MS analysis; assay type: ADME, Microsome; settings: 1 h
[2] = Solubility of compound in PBS at pH 4; assay type: physicochemical; settings: buffer
[3] = Solubility of compound in PBS at pH 7.4; assay type: physicochemical
[4] = Metabolic stability in human liver microsomes assessed as half life at 1 uM incubated upto 60 mins by LC-MS/MS analysis; assay type: ADME, Microsome; settings: 1 h
[5] = Disruption of C-terminal REV-1/FAM-tagged Pol kappa RIR (unknown origin) interaction incubated for 1 hr by FP assay; set-up: species or system Homo sapiens
DNA repair protein REV1 = biological target: T1, DNA repair protein REV1 (Homo sapiens, UniProt Q9UBZ9); test: Binding affinity to C-terminal human REV-1 assessed as dissociation constant incubated for 30 mins by MST assay
T1 sequence (Q9UBZ9 whole entry): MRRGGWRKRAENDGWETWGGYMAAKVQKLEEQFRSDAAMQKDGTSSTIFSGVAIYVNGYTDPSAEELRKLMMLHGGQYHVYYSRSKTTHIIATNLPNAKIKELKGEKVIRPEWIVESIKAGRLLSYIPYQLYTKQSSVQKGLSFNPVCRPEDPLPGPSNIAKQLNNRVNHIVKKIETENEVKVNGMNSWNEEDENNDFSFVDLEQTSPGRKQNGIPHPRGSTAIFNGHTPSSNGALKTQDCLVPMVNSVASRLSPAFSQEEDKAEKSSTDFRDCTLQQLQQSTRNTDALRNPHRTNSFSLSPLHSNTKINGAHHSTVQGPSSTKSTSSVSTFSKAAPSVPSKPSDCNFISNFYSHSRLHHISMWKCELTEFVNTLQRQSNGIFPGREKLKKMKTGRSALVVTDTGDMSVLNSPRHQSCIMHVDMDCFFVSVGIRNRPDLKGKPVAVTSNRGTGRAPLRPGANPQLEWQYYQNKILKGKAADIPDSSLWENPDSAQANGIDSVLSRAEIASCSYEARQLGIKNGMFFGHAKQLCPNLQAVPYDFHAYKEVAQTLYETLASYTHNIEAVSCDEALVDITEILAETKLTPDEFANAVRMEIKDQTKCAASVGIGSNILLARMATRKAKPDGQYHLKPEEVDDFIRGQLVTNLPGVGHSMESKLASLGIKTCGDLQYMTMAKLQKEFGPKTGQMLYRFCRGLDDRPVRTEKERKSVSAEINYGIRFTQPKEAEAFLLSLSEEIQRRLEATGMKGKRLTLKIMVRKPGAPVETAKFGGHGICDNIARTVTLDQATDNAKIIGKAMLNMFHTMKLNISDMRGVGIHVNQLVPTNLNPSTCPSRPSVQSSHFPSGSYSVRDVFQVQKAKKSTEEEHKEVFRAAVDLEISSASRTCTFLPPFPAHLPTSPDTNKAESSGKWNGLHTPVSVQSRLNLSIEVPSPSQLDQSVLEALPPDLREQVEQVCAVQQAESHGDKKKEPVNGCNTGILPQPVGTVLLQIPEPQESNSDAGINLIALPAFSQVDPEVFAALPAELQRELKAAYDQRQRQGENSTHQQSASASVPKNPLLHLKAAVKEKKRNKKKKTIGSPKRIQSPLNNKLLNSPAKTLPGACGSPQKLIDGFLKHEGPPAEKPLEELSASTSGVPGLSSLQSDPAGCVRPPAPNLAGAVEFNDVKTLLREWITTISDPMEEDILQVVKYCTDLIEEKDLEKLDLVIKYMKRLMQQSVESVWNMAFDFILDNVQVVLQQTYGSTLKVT

[6] = Toxicity in BALB/c nude mouse assessed as visual signs of toxicity at 30 to 100 mg/kg, po qd for 7 days; assay type: organism-based; settings: in vivo, 168 h, dose 30-100 mg/kg, time 7 day
MEF [7] = test: Inhibition of cologenic survival in mouse MEF cells at 10 uM incubated for 24 hrs followed by fresh media replacement without compound measured after 4 days by crystal violet staining based analysis; assay type: functional, cell-based
[8] = Clearance in CD-1 mouse at 1 mg/kg, iv by LC-MS/MS analysis; assay type: ADME, organism-based; settings: in vivo
[9] = Cmax in CD-1 mouse at 100 mg/kg, ip by LC-MS/MS analysis; assay type: ADME, organism-based; settings: in vivo
[10] = C0 in CD-1 mouse at 1 mg/kg, iv by LC-MS/MS analysis; assay type: ADME, organism-based; settings: in vivo
[11] = Toxicity in BALB/c nude mouse assessed as general impairment at 30 to 100 mg/kg, po qd for 7 days; assay type: organism-based; settings: in vivo, 168 h, dose 30-100 mg/kg, time 7 day
[12] = Dose normalized AUClast in CD-1 mouse at 100 mg/kg, ip by LC-MS/MS analysis; assay type: ADME, organism-based; settings: in vivo
[13] = Half life in CD-1 mouse at 100 mg/kg, ip by LC-MS/MS analysis; assay type: ADME, organism-based; settings: in vivo
[14] = AUClast in CD-1 mouse at 1 mg/kg, iv by LC-MS/MS analysis; assay type: ADME, organism-based; settings: in vivo
[15] = Half life in CD-1 mouse at 1 mg/kg, iv by LC-MS/MS analysis; assay type: ADME, organism-based; settings: in vivo
MEF [16] = test: Synergistic inhibition of cologenic survival in mouse MEF cells at 10 uM incubated for 24 hrs followed by fresh media replacement without compound measured after 4 days in presence of cisplatin by crystal violet staining based analysis; assay type: functional, cell-based
[17] = Toxicity in BALB/c nude mouse assessed as animal death at 200 mg/kg, po qd measured for 3 days; assay type: organism-based; settings: in vivo, 72 h, time 3 day
A549 = test: Inhibition of cologenic survival in human A549 cells incubated for 8 to 10 days by crystal violet staining based analysis; assay type: functional, cell-based; settings: time 8-10 day
[18] = AUClast in CD-1 mouse at 100 mg/kg, ip by LC-MS/MS analysis; assay type: ADME, organism-based; settings: in vivo
[19] = AUC (infinity) in CD-1 mouse at 1 mg/kg, iv by LC-MS/MS analysis; assay type: ADME, organism-based; settings: in vivo
[20] = Toxicity in BALB/c nude mouse assessed as decrease in animal weight at 200 mg/kg, po qd measured for 2 days; assay type: organism-based; settings: in vivo, 48 h, time 2 day
[21] = MRT (infinity) in CD-1 mouse at 100 mg/kg, ip by LC-MS/MS analysis; assay type: ADME, organism-based; settings: in vivo
[22] = Volume of distribution at steady state in CD-1 mouse at 1 mg/kg, iv by LC-MS/MS analysis; assay type: ADME, organism-based; settings: in vivo
MEF [23] = test: Synergistic inhibition of cologenic survival in mouse MEF cells with Rev1-/- at 10 uM incubated for 24 hrs followed by fresh media replacement without compound measured after 4 days in presence of cisplatin by crystal violet staining based analysis; assay type: functional, cell-based
SW1271 [24] = test: Synergistic inhibition of cell viability in human SW1271 cells at 20 uM incubated for 5 days in presence of Olaparib/Temozolomide by Cell Titer Glo assay; assay type: functional, cell-based; settings: time 5.0 day
SW1271 [25] = test: Synergistic inhibition of cell viability in human SW1271 cells with Rev1-/- at 20 uM incubated for 5 days in presence of Olaparib/Temozolomide by Cell Titer Glo assay; assay type: functional, cell-based; settings: time 5.0 day
[26] = MRT (infinity) in CD-1 mouse at 1 mg/kg, iv by LC-MS/MS analysis; assay type: ADME, organism-based; settings: in vivo
[27] = Toxicity in BALB/c nude mouse administered orally once daily for 7 days; settings: in vivo, route po, time 7 day
[28] = Dose normalized AUClast in CD-1 mouse at 1 mg/kg, iv by LC-MS/MS analysis; assay type: ADME, organism-based; settings: in vivo
[29] = Area under curve extrapolated from the last time point to infinity in CD-1 mouse at 100 mg/kg, ip by LC-MS/MS analysis; assay type: ADME, organism-based; settings: in vivo
[30] = AUC (infinity) in CD-1 mouse at 100 mg/kg, ip by LC-MS/MS analysis; assay type: ADME, organism-based; settings: in vivo
[31] = Tmax in CD-1 mouse at 100 mg/kg, ip by LC-MS/MS analysis; assay type: ADME, organism-based; settings: in vivo
[32] = Area under curve extrapolated from the last time point to infinity in CD-1 mouse at 1 mg/kg, iv by LC-MS/MS analysis; assay type: ADME, organism-based; settings: in vivo
[33] = Toxicity in BALB/c nude mouse assessed as effect on body weight at 30 to 100 mg/kg, po qd for 7 days; assay type: organism-based; settings: in vivo, 168 h, dose 30-100 mg/kg, time 7 day
[34] = biological target: T2, DNA repair protein REV1 (Homo sapiens) (UniProt Q9UBZ9); test: Binding affinity to C-terminal human REV-1 incubated for 30 mins by MST assay
T2 sequence (whole entry): T1 sequence (Q9UBZ9 whole entry)

[35] = Oral bioavailability in CD-1 mouse at 100 mg/kg by LC-MS/MS analysis; assay type: ADME, organism-based; settings: in vivo

Cc1cc(C)c2nc(-c3ccncc3)cc(C(=O)NCCCn3ccnc3)c2c1
intrinsic clearance (CLint) [1]: 148 µL/min/mg
solubility [2]: 268 µM (≈ 103 µg/mL)
solubility [3]: 146 µM (≈ 56.3 µg/mL)
t1/2 [4]: 4.7 min
IC50 [5]: 6.7 µM
Kd (DNA repair protein REV1): > 200 µM

Nc1ccc(/N=N/c2cccc(F)c2F)c(N)n1
Activity [6]: Non-Toxic
inhibition (MEF [7]): inactive
clearance [8]: 177 mL/min/kg
intrinsic clearance (CLint) [1]: > 300 µL/min/mg
solubility [2]: 4.5 µM (≈ 1.12 µg/mL)
Cmax [9]: 12500 ng/mL
C0 ([10]; CD-1, mouse, read-out: C0): 412 ng/mL
Activity [11]: Non-Toxic
AUClast/dose [12]: 253 ng·h/mL
half-life [13]: 269 min
AUC(0-t) [14]: 97 ng·h/mL
half-life ([15]; CD-1, mouse): 20.3 min
inhibition (MEF [16]): Active
Activity [17]: Toxic
inhibition (A549): Active
AUC(0-t) [18]: 25300 ng·h/mL
AUC(0-inf) [19]: 97 ng·h/mL
Activity [20]: Toxic
MRT inf [21]: 124 min
Vd ([22]; CD-1, mouse, read-out: Vdss): 2.81 L/kg
solubility [3]: 8.5 µM (≈ 2.12 µg/mL)
t1/2 [4]: < 2.3 min
inhibition (MEF [23]): inactive
inhibition (SW1271 [24]): Active
inhibition (SW1271 [25]): inactive
IC50 [5]: 0.4 µM
MRT inf ([26]; CD-1, mouse): 15.8 min
MTD at 168 h [27]: ≤ 100 mg/kg
AUClast/dose [28]: 96.7 ng·h/mL
%AUCextra [29]: 0.58%
AUC(0-inf) [30]: 25500 ng·h/mL
Tmax [31]: 25 min
%AUCextra [32]: 0.77%
Kd (DNA repair protein REV1): 21 µM
Activity [33]: Non-Toxic

Cc1cccn2c(=O)c3cc(C(=O)N[C@@H](C)c4ccccc4)c(N)[n+](CCOCCO)c3nc12
intrinsic clearance (CLint) [1]: 14.2 µL/min/mg
solubility [2]: 302 µM
solubility [3]: 51.7 µM
t1/2 [4]: 97.6 min
IC50 [5]: 1.6 µM
Activity [34]: inactive

CCCc1cc(C(=O)OC)c(NC(=O)C2CCN(C(C)=O)CC2)s1
Activity [6]: Non-Toxic
intrinsic clearance (CLint) [1]: 18.8 µL/min/mg
Cmax [9]: 2780 ng/mL
C0 ([10]; mouse, iv, 1 mg/kg): 200 ng/mL
Activity [11]: Non-Toxic
AUClast/dose [12]: 22.8 ng·h/mL
half-life [13]: 340 min
AUC(0-t) [14]: 37.3 ng·h/mL
t1/2 ([15]; mouse, iv, 1 mg/kg): 16.9 min
Activity [17]: Toxic
AUC(0-t) [18]: 2280 ng·h/mL
F [35]: 60.8%
AUC(0-inf) [19]: 38.2 ng·h/mL
Activity [20]: Toxic
MRT inf [21]: 169 min
Vdss ([22]; mouse, iv, 1 mg/kg): 5.96 L/kg
IC50 [5]: 4.1 µM
MRT ([26]; mouse, iv, 1 mg/kg): 13.5 min
MTD at 168 h [27]: ≤ 100 mg/kg
AUClast/dose [28]: 37.3 ng·h/mL
%AUCextra [29]: 1.74%
AUC(0-inf) [30]: 2320 ng·h/mL
Tmax [31]: 15 min
%AUCextra [32]: 2.39%
Kd (DNA repair protein REV1): 6.7 µM
Activity [33]: Non-Toxic

COc1ccc(OC)c(-c2csc(N3CCN(C(=O)c4ccco4)CC3)n2)c1
intrinsic clearance (CLint) [1]: 58.8 µL/min/mg
solubility [2]: 1.3 µM (≈ 0.519 µg/mL)
solubility [3]: 0.7 µM (≈ 0.28 µg/mL)
t1/2 [4]: 23.6 min
IC50 [5]: 6.2 µM
Kd (DNA repair protein REV1): > 200 µM
